# Read-outs that look alike come from different tables or passages of the source.
# Experiments:
# human (hACC2) = human (hACC2) (Homo sapiens, UniProt O00763); assay: In vitro ACC inhibition assay (ADP-Glo), hACC2; format: biochemical; details: 5 nM ACC2, 20 μM ATP, 20 μM acetyl-CoA
# Method: The detailed procedure is as follows. […] 10 μL ADP glo reagent was added. […] 20 μL kinase detection reagent was added.
# C. albicans = assay: Antifungal Activity Assay (broth microtiter MIC), C. albicans; format: cell-based, Candida albicans; details: Candida albicans, ATCC90028, 48 h
# In short: (§1)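 Endpoint: lowest concentration visibly inhibiting growth relative to control after 48 h. Inoculum of 2.5×10^3 CFU/mL final in RPMI 1640+MOPS, prepared from overnight 35° C agar cultures; test compounds diluted in water to 128 μg/mL before plating.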
# C. krusei = assay: Antifungal Activity Assay (broth microtiter MIC), C. krusei; format: cell-based, Candida krusei; details: Pichia kudriavzevii, ATCC6258, 48 h
# In short: as §1
# C. parapsilosis = assay: Antifungal Activity Assay (broth microtiter MIC), C. parapsilosis; format: cell-based, Candida parapsilosis; details: Lodderomyces parapsilosis, ATCC22019, 48 h
# In short: as §1
# fungal (fACC2) = fungal (fACC2) (UniProt Q00955); details: read-out: fACC2 (in vitro ACC2 Inhibition Assay, IC50), ADP-Glo, 5 nM ACC2, 20 μM ATP, 20 μM acetyl-CoA
# Sequence of fungal (fACC2) (Q00955 whole entry): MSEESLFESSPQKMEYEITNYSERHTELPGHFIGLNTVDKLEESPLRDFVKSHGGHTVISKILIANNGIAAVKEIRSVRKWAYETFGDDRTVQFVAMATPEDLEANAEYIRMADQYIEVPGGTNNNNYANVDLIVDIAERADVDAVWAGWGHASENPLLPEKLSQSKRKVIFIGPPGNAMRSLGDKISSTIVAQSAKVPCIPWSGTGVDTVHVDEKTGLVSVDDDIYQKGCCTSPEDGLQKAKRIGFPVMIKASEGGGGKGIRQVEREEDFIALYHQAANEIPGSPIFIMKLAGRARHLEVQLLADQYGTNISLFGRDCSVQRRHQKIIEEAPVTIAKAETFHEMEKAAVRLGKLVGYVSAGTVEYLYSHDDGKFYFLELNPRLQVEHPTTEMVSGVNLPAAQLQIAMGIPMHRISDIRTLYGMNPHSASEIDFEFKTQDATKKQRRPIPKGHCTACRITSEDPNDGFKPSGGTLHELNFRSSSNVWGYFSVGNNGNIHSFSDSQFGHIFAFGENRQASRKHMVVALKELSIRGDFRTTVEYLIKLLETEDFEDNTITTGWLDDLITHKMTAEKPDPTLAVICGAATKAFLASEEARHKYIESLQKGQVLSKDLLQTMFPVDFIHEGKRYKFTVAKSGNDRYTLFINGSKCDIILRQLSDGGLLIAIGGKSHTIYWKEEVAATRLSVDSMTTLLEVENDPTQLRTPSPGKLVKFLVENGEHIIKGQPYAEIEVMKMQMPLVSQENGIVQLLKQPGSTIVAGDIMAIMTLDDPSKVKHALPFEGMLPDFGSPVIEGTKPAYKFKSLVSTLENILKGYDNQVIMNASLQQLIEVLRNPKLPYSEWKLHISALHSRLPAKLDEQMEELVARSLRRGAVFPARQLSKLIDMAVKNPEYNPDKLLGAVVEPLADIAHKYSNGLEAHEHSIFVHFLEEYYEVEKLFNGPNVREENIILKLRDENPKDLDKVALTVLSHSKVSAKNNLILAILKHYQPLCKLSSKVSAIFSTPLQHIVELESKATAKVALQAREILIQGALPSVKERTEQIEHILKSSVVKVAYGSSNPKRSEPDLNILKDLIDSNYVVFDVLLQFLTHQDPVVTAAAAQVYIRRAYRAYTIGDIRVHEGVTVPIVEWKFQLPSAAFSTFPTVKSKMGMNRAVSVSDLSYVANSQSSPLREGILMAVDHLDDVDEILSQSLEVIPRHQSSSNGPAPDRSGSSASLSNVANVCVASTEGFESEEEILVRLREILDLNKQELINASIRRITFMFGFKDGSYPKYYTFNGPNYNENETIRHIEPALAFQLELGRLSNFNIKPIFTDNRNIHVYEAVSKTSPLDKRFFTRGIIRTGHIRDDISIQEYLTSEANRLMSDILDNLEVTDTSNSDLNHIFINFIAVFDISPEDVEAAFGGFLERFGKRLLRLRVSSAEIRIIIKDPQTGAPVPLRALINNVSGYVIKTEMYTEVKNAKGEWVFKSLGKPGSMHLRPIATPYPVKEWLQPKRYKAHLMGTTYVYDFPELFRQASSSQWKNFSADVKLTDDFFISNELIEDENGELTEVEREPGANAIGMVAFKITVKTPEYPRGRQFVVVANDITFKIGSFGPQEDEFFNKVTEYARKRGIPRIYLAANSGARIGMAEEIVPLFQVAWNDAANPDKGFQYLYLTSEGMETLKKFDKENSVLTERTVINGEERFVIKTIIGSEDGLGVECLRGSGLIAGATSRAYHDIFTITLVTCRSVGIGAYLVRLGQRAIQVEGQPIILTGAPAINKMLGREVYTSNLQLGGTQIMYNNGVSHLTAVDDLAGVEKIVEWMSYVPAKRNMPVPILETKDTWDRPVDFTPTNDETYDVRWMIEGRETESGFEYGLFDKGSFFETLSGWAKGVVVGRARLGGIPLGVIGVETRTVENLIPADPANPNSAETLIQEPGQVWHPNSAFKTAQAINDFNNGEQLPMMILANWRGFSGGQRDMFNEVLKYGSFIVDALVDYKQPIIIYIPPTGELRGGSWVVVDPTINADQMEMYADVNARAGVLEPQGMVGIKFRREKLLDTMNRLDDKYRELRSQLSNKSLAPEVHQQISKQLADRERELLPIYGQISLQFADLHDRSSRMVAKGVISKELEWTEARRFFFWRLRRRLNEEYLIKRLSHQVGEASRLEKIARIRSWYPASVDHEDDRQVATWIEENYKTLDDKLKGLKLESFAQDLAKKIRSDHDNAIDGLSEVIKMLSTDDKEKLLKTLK
# [1] = Table 3a, ATCC 90028, 3 replicates, MIC recorded at 48 h, read-out: MIC, C. albicans ATCC 90028
# [2] = Table 3b (additional results), ATCC 90028, 3 replicates, MIC recorded at 48 h, read-out: MIC, C. albicans ATCC 90028
# [3] = Table 3a, ATCC 6258, 3 replicates, MIC recorded at 48 h, read-out: MIC, C. krusei ATCC 6258
# [4] = Table 3b (additional results), ATCC 6258, 3 replicates, MIC recorded at 48 h, read-out: MIC, C. krusei ATCC 6258
# [5] = Table 3a, ATCC 22019, 3 replicates, MIC recorded at 48 h, read-out: MIC, C. parapsilosis ATCC 22019
# [6] = Table 3b (additional results), ATCC 22019, 3 replicates, MIC recorded at 48 h, read-out: MIC, C. parapsilosis ATCC 22019
# [7] = read-out: MIC, C. albicans ATCC 90028, Table 3b (additional results), 3 replicates, MIC recorded at 48 h
# [8] = read-out: MIC, C. krusei ATCC 6258, Table 3b (additional results), 3 replicates, MIC recorded at 48 h
# [9] = read-out: MIC, C. parapsilosis ATCC 22019, Table 3b (additional results), 3 replicates, MIC recorded at 48 h
# Sequence of human (hACC2) (O00763 whole entry): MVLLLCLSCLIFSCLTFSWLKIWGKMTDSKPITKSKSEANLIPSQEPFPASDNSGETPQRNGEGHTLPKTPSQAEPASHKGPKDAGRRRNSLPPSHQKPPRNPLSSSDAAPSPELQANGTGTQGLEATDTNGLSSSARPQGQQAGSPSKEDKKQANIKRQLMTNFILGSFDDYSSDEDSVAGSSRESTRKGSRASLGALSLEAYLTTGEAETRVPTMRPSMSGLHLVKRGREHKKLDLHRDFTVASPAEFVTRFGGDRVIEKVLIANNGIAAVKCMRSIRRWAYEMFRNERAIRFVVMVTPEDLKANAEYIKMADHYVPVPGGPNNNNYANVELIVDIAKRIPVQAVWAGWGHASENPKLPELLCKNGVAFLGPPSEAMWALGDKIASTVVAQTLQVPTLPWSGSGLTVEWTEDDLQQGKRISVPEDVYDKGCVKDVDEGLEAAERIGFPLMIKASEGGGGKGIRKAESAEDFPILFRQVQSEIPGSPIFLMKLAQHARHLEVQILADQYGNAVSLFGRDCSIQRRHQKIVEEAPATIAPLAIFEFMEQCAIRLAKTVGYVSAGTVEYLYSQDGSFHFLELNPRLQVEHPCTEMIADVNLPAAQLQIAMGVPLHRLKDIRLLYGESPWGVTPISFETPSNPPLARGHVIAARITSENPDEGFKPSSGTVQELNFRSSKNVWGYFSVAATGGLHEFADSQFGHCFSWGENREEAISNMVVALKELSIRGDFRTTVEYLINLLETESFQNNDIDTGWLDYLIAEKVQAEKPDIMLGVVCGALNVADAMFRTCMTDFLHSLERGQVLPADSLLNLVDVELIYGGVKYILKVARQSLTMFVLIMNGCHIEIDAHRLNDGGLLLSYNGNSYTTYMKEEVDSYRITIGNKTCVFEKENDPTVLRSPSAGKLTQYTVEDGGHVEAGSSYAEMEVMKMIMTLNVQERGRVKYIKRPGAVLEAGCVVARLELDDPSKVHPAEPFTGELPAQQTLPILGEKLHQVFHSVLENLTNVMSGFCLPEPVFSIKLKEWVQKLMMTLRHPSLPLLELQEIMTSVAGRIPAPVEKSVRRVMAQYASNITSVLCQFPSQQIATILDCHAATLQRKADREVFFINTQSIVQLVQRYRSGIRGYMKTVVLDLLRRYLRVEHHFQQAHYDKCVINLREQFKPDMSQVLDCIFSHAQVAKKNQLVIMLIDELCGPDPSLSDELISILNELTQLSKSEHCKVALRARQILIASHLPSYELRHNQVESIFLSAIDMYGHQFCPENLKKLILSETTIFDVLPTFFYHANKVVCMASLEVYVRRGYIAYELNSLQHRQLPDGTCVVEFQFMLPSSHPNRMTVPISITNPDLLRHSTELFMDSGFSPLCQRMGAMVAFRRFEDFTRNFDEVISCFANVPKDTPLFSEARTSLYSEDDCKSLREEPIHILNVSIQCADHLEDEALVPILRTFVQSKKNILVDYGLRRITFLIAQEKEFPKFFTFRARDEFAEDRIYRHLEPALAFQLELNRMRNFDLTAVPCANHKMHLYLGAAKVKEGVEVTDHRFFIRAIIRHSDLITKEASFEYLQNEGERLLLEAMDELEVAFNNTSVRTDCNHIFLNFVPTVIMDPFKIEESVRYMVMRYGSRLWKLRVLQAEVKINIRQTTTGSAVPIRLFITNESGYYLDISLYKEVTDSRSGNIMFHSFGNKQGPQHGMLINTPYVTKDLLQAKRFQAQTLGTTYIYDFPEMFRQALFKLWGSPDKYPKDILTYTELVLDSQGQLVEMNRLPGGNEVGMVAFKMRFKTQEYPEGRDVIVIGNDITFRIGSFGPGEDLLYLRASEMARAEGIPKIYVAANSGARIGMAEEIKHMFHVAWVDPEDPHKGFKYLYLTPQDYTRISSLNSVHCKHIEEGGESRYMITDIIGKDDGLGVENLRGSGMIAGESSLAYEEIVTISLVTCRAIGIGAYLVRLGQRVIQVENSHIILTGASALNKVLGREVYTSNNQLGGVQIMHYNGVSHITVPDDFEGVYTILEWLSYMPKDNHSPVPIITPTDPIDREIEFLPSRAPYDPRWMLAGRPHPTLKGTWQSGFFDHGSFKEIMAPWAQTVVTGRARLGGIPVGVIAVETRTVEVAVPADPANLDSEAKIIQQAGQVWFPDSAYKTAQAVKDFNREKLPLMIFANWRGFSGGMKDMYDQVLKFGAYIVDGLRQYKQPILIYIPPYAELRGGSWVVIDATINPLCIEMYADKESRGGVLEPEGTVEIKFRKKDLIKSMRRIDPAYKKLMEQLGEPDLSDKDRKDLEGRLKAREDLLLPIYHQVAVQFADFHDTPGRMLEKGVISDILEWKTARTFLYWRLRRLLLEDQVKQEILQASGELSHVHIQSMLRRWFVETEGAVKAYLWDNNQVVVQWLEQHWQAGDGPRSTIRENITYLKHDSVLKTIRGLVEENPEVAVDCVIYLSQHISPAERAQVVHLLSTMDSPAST
SMILES,IC50 (human (hACC2); Table 2a) [nM],"IC50 (human (hACC2); Table 2b, additional results) [nM]",MIC (C. albicans; [1]) [µg/mL],MIC (C. albicans; [2]) [µg/mL],MIC (C. krusei; [3]) [µg/mL],MIC (C. krusei; [4]) [µg/mL],MIC (C. parapsilosis; [5]) [µg/mL],MIC (C. parapsilosis; [6]) [µg/mL],IC50 (fungal (fACC2); Table 2a) [nM],"IC50 (fungal (fACC2); Table 2b, additional results) [nM]",MIC (C. albicans; [7]) [µg/mL],MIC (C. krusei; [8]) [µg/mL],MIC (C. parapsilosis; [9]) [µg/mL],"MIC (C. albicans; read-out: MIC, C. albicans ATCC 90028, Table 3a, 3 replicates, MIC recorded at 48 h) [µg/mL]","MIC (C. krusei; read-out: MIC, C. krusei ATCC 6258, Table 3a, 3 replicates, MIC recorded at 48 h) [µg/mL]","MIC (C. parapsilosis; read-out: MIC, C. parapsilosis ATCC 22019, Table 3a, 3 replicates, MIC recorded at 48 h) [µg/mL]"
COc1ccc(F)cc1[C@H](Cn1c(=O)n(C(C)(C)C(=O)O)c(=O)c2c(C)c(-n3nccn3)sc21)OC[C@@H](C)C#N [Compound I-147],5 to 10,5 to 10,2.1 to 4,2.01 to 4,2.1 to 4,> 4.01,2.1 to 4,> 4.01,1 to 5,1 to 5,,,,,,
COc1ccc(F)cc1[C@H](Cn1c(=O)n(C(C)(C)C(=O)O)c(=O)c2c(C)c(-n3nccn3)sc21)OC[C@H](C)C#N [Compound I-148],1 to 5,1 to 5,2.1 to 4,2.01 to 4,2.1 to 4,> 4.01,2.1 to 4,> 4.01,1 to 5,1 to 5,,,,,,
"COc1ccc(F)cc1[C@H](Cn1c(=O)n(C(C)(C)C(=O)O)c(=O)c2c(C)c(-n3nccn3)sc21)OCC(C)(C)C#N [Compound I-149, 2-[1-[(2R)-2-(2-cyano-2,2-dimethylethoxy)-2-(5-fluoro-2-methoxyphenyl)ethyl]-5-methyl-2,4-dioxo-6-(2H-1,2,3-triazol-2-yl)-1H,2H,3H,4H-thieno[2,3-d]pyrimidin-3-yl]-2-methylpropanoic acid]",1 to 5,1 to 5,2.1 to 4,1.01 to 2,2.1 to 4,> 4.01,2.1 to 4,> 4.01,1 to 5,1 to 5,,,,,,
COc1ccc(F)cc1[C@H](Cn1c(=O)n(C(C)(C)C(N)=O)c(=O)c2c(C)c(-n3nccn3)sc21)OC[C@@H](C)C#N [Compound I-152],1 to 5,1 to 5,2.1 to 4,1.01 to 2,2.1 to 4,2.01 to 4,2.1 to 4,> 4.01,0.4 to 1,0.3 to 1,,,,,,
COc1ccc(F)cc1[C@H](Cn1c(=O)n(C(C)(C)C(N)=O)c(=O)c2c(C)c(-n3nccn3)sc21)OC[C@H](C)C#N [Compound I-153],1 to 5,1 to 5,2.1 to 4,1.01 to 2,2.1 to 4,2.01 to 4,2.1 to 4,> 4.01,0.4 to 1,0.3 to 1,,,,,,
COc1ccc(F)cc1[C@H](Cn1c(=O)n(C(C)(C)C(N)=O)c(=O)c2c(C)c(-n3nccn3)sc21)OCC(C)(C)C#N [Compound I-155],5 to 10,5 to 10,0.25 to 1,1.01 to 2,1.1 to 2,2.01 to 4,2.1 to 4,> 4.01,1 to 5,1 to 5,,,,,,
COc1ccc(F)cc1[C@H](Cn1c(=O)n(C(C)(C)C(=O)O)c(=O)c2c(C)c(-n3nccn3)sc21)O[C@H]1CC[C@@H](C#N)CC1 [Compound I-156],10 to 40,10 to 40,,,,,,,0.4 to 1,0.3 to 1,1.01 to 2,1.01 to 2,2.01 to 4,,,
COc1ccc(F)cc1[C@H](Cn1c(=O)n(C(C)(C)C(=O)O)c(=O)c2c(C)c(-n3nccn3)sc21)O[C@H]1CC[C@H](C#N)CC1 [Compound I-157],5 to 10,5 to 10,,1.01 to 2,,1.01 to 2,,2.01 to 4,1 to 5,1 to 5,,,,,,
COc1ccc(F)cc1[C@H](Cn1c(=O)n(C(C)(C)C(=O)NC(C)C)c(=O)c2c(C)c(-n3nccn3)sc21)O[C@H]1CC[C@@H](C#N)CC1 [Compound I-158],10 to 40,10 to 40,,,,,,,1 to 5,1 to 5,0.25 to 1,0.06 to 0.249,0.25 to 1,0.25 to 1,0.25 to 1,1.1 to 2

# From US10800791B2, “Triazole ACC inhibitors and uses thereof” (Gilead Apollo, LLC, priority 2015, dated 2020)
